Measurements as given in patent US9133220B2, “Boron-containing 5-arylidene-3,5-dihydro-4H-imidazol-4-ones” (Evrogen Joint Stock Company, priority 2012, dated 2015).
Values after ≈ are worked out from the molar mass of the structure shown. Read-outs that look alike come from different tables or passages of the source. Marks after values point to notes of the source that are not given here.

Columns and labels:
[1] = widely used fluorescent dyes; approximate values; cited from earlier work
[2] = Measuring spectral characteristics (absorption and emission maxima, extinction coefficients); assay type: physicochemical
Protocol: (§1) To measure spectral characteristics of some compounds with the formula I weighted portions of compounds p-NH2-BDI-BF2, p-dimethylamino-BDI-BF2, p-diethylamino-BDI-BF2, p-HOBDI-BF2, di-F-p-HOBDI-BF2, p-diethylamino-BDI-dimethylaminoethenyl-BF2 and p-HOBDI-dimethylaminoethenyl-BF2 were dissolved in water, ethanol and acetonitrile. Absorption spectra were measured on Varian Cary 100 Bio spectrophotometer, fluorescence spectra were measured on Varian Cary Eclipse scanning spectrofluorometer.
The values of absorption and emission maxima and molar extinction coefficients for examples of compounds with the formula I in the indicated solvents are listed in a Table 2. Emission peaks of the investigated compounds settle into a rather wide range from 485 nm for p-HOBDI-BF2 to 598 nm for p-diethylamino-BDI-dimethylamino-ethenyl-BF2.

[3] = Determination of solubility in water; assay type: physicochemical; conditions: thermodynamic from solid
Protocol: To determine the solubility in water of compounds an excess amount of analyzed substance was put in a known volume of a solvent and stirred for 5 hours at r.t. The obtained mixture was centrifuged, and the concentration of a compound in mother liquor was measured with spectrophotometric method on the base of molar extinction coefficients data.

[4] = Quantum yield of fluorescence; assay type: physicochemical
Protocol: as §1
The compounds p-NH2-BDI-BF2, p-HOBDI-BF2 (anionic form), di-Fp-HOBDI-BF2 (anionic form), p-diethylamino-BDI-dimethylaminoethenyl-BF2, p-HOBDI-dimethylaminoethenyl-BF2 (anionic form) have rather high quantum yields of fluorescence in water solutions.

[5] = Photoacidity: acidity constants of ground and excited states; assay type: physicochemical
Description: Photoacidity is an ability to dissociate with formation of H^+ ion under the action of visible light. Photoacidity is characterized by constants of acidity of ground and excited states. Förster's equation describes the relationship between acidity constants of ground and excited states and energy of transfer between the states.
For compounds of the formula I, containing phenolic OH-group, high photoacidity—an ability to dissociate with formation of H^+ ion under the action of visible light—is a distinctive feature. […] (^1)((Z)-4-(2-(difluoroboryl)-3,5-difluoro-4-hydroxybenzylidene)-1,2-dimethyl-1H-imidazole-5(4H)-one)

[6] = water, neutral form line, starred: only emission of deprotonated form can be measured due to high photoacidity
[7] = acidic and neutral pH values, r.t.
[8] = acidic and neutral values of pH

| Structure (SMILES) | emission peak [1] [nm] | Abs. peak ([2]; acetonitrile, anionic form) [nm] | Emis. peak ([2]; acetonitrile, anionic form) [nm] | Abs. peak ([2]; acetonitrile, neutral form) [nm] | Emis. peak ([2]; acetonitrile, neutral form) [nm] | ext. coef. ([2]; acetonitrile, neutral form) [M⁻¹ cm⁻¹] | shift of emission and absorption spectra with change of more polar solvent (water) to less polar (ethanol, acetonitrile) ([2]; anionic form) | Abs. peak ([2]; ethanol, anionic form) [nm] | Emis. peak ([2]; ethanol, anionic form) [nm] | ext. coef. ([2]; ethanol, anionic form) [M⁻¹ cm⁻¹] | Abs. peak ([2]; ethanol, neutral form) [nm] | Emis. peak ([2]; ethanol, neutral form) [nm] | ext. coef. ([2]; ethanol, neutral form) [M⁻¹ cm⁻¹] | shift of emission and absorption spectra with change of more polar solvent (water) to less polar (ethanol, acetonitrile) ([2]; neutral form) | Abs. peak ([2]; water, anionic form) [nm] | Emis. peak ([2]; water, anionic form) [nm] | ext. coef. ([2]; water, anionic form) [M⁻¹ cm⁻¹] | Abs. peak ([2]; water, neutral form) [nm] | ext. coef. ([2]; water, neutral form) [M⁻¹ cm⁻¹] | Emis. peak [2, 6] | further results |
| --- | --- | --- | --- | --- | --- | --- | --- | --- | --- | --- | --- | --- | --- | --- | --- | --- | --- | --- | --- | --- | --- |
| CCCCCCCCCCCCCCCCCCN1/C(=C\C=C\c2oc3ccccc3[n+]2CCCCCCCCCCCCCCCCCC)Oc2ccccc21.[O-][Cl+3]([O-])([O-])[O-] [DiO] | 501 |  |  |  |  |  |  |  |  |  |  |  |  |  |  |  |  |  |  |  |  |
| CC1=N/C(=C\c2cc(F)c(O)cc2B(F)F)C(=O)N1C [F-p-HOBDI-BF2, (Z)-4-(2-(difluoroboryl)-5-fluoro-4-hydroxybenzylidene)-1,2-dimethyl-1H-imidazole-5(4H)-one] |  | 522 | 543 | 397 | 468 | 28000 | bathochromic shift | 505 | 537 | 48000 | 408 | 482 | 24000 | hypsochromic shift | 478 | 528 | 38300 | 392 | 31500 | 528* nm | solubility at 5 h [3, 7]: ~1000 µM (≈ 282 µg/mL); solubility at 5 h [3, 8]: 1 µM (≈ 0.282 µg/mL) |
| CN(C)/C=C/C1=NC(=C\c2ccc(O)cc2B(F)F)/C(=O)N1C [p-HOBDI-dimethylaminoethenyl-BF2, (Z)-4-(2-(difluoroboryl)-4-hydroxybenzylidene)-2-((E)-2-(dimethylamino)vynil)-1-methyl-1H-imidazole-5(4H)-one] |  | 555 | 598 | 444 | 502 |  | bathochromic shift | 529 | 587 |  | 450 | 505 |  | hypsochromic shift | 502 | 570 |  | 467 |  |  | Emis. peak ([2]; water, neutral form): 521 nm; Quantum yield of fluorescence ([4]; water, anionic form): 0.27 |
| CC1=N/C(=C\c2ccc(N)cc2B(F)F)C(=O)N1C [p-NH2-BDI-BF2, (Z)-4-(4-amino-2-(difluoroboryl)benzylidene)-1,2-dimethyl-1H-imidazole-5(4H)-one] |  |  |  |  |  |  |  |  |  |  |  |  |  |  |  |  |  |  |  |  | shift of emission and absorption spectra with change of more polar solvent (water) to less polar (ethanol, acetonitrile) [2]: hypsochromic shift; Abs. peak ([2]; acetonitrile): 451 nm; Emis. peak ([2]; acetonitrile): 518 nm; Abs. peak ([2]; ethanol): 476 nm; Emis. peak ([2]; ethanol): 532 nm; Abs. peak ([2]; water): 475 nm; Emis. peak ([2]; water): 532 nm; Quantum yield of fluorescence ([4]; acetonitrile): 0.62; Quantum yield of fluorescence ([4]; ethanol): 0.64; Quantum yield of fluorescence ([4]; water): 0.70 |
| CC1=N/C(=C\c2cc(F)c(O)c(F)c2B(F)F)C(=O)N1C [di-F-p-HOBDI-BF2, (Z)-4-(2-(difluoroboryl)-3,5-difluoro-4-hydroxybenzylidene)-1,2-dimethyl-1H-imidazole-5(4H)-one] |  | 519 | 542 | 392 | 460 | 26000 | bathochromic shift | 503 | 538 | 45000 | 400 |  | 21000 | hypsochromic shift | 484 | 532 | 44400 | 400 | 32000 | 532* nm | Emis. peak ([2]; ethanol, neutral form line, starred: only emission of deprotonated form can be measured due to high photoacidity): 538* nm; Quantum yield of fluorescence ([4]; water, anionic form): 0.73; solubility at 5 h [3, 7]: ~1000 µM (≈ 300 µg/mL); solubility at 5 h [3, 8]: 1 µM (≈ 0.3 µg/mL); pKa ([5]; excited state): < 0; pKa* ([5]; excited state, listed as (Z)-4-(2-(difluoroboryl)-3,5-difluoro-4-hydroxybenzylidene)-1,2-dimethyl-1H-imid): lies in the negative region; pKa* ([5]; excited state, listed as diF-p-HOBDI-BF2): in the range of negative values; pKa ([5]; ground state, phenol group): 5.2 |
| CCN1C(=CC=CC2=[N+](CCCCCC(=O)O)c3ccc(S(=O)(=O)O)cc3C2(C)C)C(C)(C)c2cc(S(=O)(=O)[O-])ccc21 [Cy3] | 570 |  |  |  |  |  |  |  |  |  |  |  |  |  |  |  |  |  |  |  |  |
